Activity calls are given as the source filed them. No cut-off for these calls is given here.
Key:
CDK9/cyclin T1 = CDK9/cyclin T1 (Homo sapiens, UniProt P50750); test: Inhibition of CDK9/cyclin T1 (unknown origin) incubated for 2 hrs in presence of ATP by FRET based LANCE assay; type: protein-complex assay
[1] = molecular target: Discoidin domain-containing receptor 2 (Homo sapiens, UniProt Q16832); test: Inhibition of DDR2 (unknown origin)
[2] = molecular target: Insulin-like growth factor 1 receptor (Homo sapiens, UniProt P08069); test: Inhibition of IGF1R (unknown origin)
Insulin-like growth factor 1 receptor, sequence (P08069 31-736 limits assumed): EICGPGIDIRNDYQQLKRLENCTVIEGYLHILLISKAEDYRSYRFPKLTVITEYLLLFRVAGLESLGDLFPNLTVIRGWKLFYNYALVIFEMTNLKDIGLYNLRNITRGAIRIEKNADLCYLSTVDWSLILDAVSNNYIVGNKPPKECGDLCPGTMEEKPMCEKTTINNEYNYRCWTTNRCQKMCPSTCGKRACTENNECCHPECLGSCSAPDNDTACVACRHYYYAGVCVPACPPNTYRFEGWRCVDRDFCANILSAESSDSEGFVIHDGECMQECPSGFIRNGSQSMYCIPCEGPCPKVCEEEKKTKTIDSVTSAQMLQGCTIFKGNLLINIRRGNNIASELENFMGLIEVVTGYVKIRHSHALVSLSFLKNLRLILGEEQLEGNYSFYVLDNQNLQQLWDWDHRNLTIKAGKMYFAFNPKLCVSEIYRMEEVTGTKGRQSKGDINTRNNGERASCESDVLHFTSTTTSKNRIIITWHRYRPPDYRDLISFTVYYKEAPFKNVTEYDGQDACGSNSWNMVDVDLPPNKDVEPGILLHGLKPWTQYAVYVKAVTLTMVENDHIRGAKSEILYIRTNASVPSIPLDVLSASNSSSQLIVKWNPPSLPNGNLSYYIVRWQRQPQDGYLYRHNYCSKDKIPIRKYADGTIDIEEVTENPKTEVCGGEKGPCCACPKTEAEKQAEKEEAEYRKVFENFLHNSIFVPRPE
Insulin-like growth factor 1 receptor, sequence (P08069 741-1367 limits assumed): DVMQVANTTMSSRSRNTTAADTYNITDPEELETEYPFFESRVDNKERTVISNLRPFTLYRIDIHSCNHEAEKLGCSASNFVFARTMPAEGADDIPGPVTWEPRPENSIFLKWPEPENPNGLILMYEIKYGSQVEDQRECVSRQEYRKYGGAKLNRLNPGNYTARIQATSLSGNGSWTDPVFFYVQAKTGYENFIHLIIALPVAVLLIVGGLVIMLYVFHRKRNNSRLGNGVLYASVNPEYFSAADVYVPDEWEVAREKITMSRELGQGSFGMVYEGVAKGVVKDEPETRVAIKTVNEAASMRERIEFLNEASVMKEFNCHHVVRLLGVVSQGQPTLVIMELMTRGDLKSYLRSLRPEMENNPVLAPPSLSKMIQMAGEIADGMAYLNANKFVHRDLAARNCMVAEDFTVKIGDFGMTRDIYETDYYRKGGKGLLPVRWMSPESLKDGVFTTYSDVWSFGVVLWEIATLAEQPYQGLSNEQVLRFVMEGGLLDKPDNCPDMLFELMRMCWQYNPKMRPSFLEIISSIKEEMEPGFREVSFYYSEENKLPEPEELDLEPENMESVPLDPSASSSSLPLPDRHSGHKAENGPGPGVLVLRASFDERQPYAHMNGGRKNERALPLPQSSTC

[3] = molecular target: Serine/threonine-protein kinase 17B (Homo sapiens, UniProt O94768); test: Inhibition of DRAK2 (unknown origin)
Serine/threonine-protein kinase 17B, sequence (O94768 whole entry): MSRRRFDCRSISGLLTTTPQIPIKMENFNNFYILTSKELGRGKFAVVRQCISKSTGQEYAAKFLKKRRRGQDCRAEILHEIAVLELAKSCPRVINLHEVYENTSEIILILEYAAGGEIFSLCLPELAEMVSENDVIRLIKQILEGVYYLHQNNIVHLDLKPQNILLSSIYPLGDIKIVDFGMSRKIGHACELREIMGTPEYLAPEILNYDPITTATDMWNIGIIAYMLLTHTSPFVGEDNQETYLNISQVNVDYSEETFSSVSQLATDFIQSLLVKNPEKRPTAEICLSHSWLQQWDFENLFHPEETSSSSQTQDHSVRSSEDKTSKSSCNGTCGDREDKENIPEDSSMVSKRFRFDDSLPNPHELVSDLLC

[4] = molecular target: Tyrosine-protein kinase receptor UFO (Homo sapiens, UniProt P30530); test: Inhibition of AXL (unknown origin)
MV4-11 [5] = test: Induction of apoptosis in human MV4-11 cells assessed as early apoptotic cells at 10 nM measured after 24 hrs by annexinV-FITC/propidium iodide staining based flow cytometry (reference value: 0.79 %); type: functional
[6] = molecular target: Fibroblast growth factor receptor 3 (Homo sapiens, UniProt P22607); test: Inhibition of FGFR3 (unknown origin)
[7] = Toxicity in Nu/Nu mouse xenografted with human MV4-11 cells assessed as change in body weight at 7.5 mg/kg, po administered for 21 consecutive days and measured on day 22 (reference value: 23.9 +/- 0.7 g); type: organism-based; conditions: in vivo, 528 h, time 22 day
[8] = Observed clearance in ICR mouse at 2 mg/kg, iv measured up to 24 hrs; type: ADME, organism-based; conditions: in vivo
[9] = molecular target: Fibroblast growth factor receptor 2 (Homo sapiens, UniProt P21802); test: Inhibition of FGFR2 (unknown origin)
[10] = molecular target: Cyclin-dependent kinase 2 (Homo sapiens, UniProt P24941); test: Inhibition of CDK2 (unknown origin)
[11] = molecular target: Receptor tyrosine-protein kinase erbB-2 (Homo sapiens, UniProt P04626); test: Inhibition of ErbB2 (unknown origin)
Raji = test: Antiproliferative activity against human Raji cells assessed as reduction in cell proliferation measured after 3 to 7 days by MTS assay; type: functional, cell-based
Insulin receptor = Insulin receptor (Homo sapiens, UniProt P06213); test: Inhibition of IR (unknown origin)
[12] = molecular target: Proto-oncogene tyrosine-protein kinase receptor Ret (Homo sapiens, UniProt P07949); test: Inhibition of RET (unknown origin)
[13] = Observed AUC infinity in ICR mouse at 20 mg/kg, po measured up to 24 hrs; type: ADME, organism-based; parameters: route oral, dose 20 mg/kg, time <=24; conditions: in vivo
MV4-11 [14] = test: Antitumor activity against human MV4-11 cells xenografted in Nu/Nu mouse assessed as tumor growth suppression by measuring T/C ratio at 7.5 mg/kg, po administered for 21 consecutive days by digital caliper method relative to control; type: functional; conditions: time 21 day
[15] = molecular target: Hepatocyte growth factor receptor (Homo sapiens, UniProt P08581); test: Inhibition of Met (unknown origin)
Hepatocyte growth factor receptor, sequence (P08581 whole entry): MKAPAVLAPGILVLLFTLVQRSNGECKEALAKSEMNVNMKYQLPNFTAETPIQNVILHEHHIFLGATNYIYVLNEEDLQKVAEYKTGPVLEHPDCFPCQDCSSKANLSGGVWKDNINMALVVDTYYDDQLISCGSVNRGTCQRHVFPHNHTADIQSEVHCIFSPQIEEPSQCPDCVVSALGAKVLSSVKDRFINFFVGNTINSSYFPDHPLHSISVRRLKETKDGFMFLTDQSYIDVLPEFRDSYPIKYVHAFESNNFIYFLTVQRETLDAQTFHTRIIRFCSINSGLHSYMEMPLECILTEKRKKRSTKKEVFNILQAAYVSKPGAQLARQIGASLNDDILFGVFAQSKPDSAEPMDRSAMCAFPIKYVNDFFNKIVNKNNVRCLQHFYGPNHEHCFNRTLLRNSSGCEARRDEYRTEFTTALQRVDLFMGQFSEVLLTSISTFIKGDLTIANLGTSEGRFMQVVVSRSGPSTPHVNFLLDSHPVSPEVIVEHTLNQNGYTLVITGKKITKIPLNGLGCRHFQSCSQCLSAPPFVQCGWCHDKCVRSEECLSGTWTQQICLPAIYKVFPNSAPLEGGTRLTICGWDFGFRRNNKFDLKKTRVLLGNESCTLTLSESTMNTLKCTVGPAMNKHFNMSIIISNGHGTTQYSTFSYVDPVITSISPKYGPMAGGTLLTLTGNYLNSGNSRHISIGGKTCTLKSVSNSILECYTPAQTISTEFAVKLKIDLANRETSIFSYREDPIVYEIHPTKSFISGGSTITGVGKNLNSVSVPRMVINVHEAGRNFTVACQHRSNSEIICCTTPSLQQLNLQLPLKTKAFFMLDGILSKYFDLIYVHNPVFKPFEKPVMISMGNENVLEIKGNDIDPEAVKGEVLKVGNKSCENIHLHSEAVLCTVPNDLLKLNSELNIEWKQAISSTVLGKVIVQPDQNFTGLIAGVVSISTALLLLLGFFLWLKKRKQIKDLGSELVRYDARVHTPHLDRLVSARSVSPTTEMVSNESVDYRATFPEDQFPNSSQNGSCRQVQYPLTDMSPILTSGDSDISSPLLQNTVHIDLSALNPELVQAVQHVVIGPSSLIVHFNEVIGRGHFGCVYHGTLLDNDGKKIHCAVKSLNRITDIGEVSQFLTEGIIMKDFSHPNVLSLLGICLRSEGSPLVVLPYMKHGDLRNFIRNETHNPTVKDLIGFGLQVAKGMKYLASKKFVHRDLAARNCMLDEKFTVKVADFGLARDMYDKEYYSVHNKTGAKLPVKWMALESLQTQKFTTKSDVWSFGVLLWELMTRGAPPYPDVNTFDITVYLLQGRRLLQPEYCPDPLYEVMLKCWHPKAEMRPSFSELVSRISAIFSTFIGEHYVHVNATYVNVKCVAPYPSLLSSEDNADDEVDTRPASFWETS

MV4-11 [16] = test: Induction of apoptosis in human MV4-11 cells assessed as late apoptotic cells at 10 nM measured after 24 hrs by annexinV-FITC/propidium iodide staining based flow cytometry (reference value: 3.04 %); type: functional
[17] = molecular target: Epidermal growth factor receptor (Homo sapiens, UniProt P00533); test: Inhibition of EGFR (unknown origin)
[18] = Tmax in ICR mouse at 20 mg/kg, po measured up to 24 hrs; type: ADME, organism-based; conditions: in vivo
[19] = Toxicity in Nu/Nu mouse xenografted with human MV4-11 cells assessed as body weight loss at 7.5 mg/kg, po administered for 21 consecutive days relative to control; type: organism-based; conditions: in vivo, 504 h, time 21 day
[20] = Half life in ICR mouse at 20 mg/kg, po measured up to 24 hrs; type: ADME, organism-based; conditions: in vivo
Z-138 = test: Antiproliferative activity against human Z138 cells assessed as reduction in cell proliferation measured after 3 to 7 days by MTS assay; type: functional, cell-based
[21] = molecular target: Serine/threonine-protein kinase PAK 1 (Homo sapiens, UniProt Q13153); test: Inhibition of PAK1 (unknown origin)
Serine/threonine-protein kinase PAK 1, sequence (Q13153 whole entry): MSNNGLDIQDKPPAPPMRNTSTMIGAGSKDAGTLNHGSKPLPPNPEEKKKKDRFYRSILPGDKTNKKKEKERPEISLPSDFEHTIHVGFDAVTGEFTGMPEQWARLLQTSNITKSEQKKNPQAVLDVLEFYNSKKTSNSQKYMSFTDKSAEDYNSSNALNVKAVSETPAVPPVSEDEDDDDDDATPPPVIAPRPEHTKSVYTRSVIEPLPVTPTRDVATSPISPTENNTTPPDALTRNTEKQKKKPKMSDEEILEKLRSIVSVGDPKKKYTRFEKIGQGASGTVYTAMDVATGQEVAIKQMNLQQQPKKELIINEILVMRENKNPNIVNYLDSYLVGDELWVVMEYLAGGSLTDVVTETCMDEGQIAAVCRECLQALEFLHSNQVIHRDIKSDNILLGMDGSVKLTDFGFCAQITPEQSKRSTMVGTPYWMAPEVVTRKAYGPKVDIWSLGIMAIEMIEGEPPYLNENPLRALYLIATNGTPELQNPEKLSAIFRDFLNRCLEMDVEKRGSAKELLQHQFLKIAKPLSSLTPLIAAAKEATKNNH

[22] = molecular target: Tyrosine-protein kinase receptor TYRO3 (Homo sapiens, UniProt Q06418); test: Inhibition of TYRO3 (unknown origin)
Tyrosine-protein kinase receptor TYRO3, sequence (Q06418 whole entry): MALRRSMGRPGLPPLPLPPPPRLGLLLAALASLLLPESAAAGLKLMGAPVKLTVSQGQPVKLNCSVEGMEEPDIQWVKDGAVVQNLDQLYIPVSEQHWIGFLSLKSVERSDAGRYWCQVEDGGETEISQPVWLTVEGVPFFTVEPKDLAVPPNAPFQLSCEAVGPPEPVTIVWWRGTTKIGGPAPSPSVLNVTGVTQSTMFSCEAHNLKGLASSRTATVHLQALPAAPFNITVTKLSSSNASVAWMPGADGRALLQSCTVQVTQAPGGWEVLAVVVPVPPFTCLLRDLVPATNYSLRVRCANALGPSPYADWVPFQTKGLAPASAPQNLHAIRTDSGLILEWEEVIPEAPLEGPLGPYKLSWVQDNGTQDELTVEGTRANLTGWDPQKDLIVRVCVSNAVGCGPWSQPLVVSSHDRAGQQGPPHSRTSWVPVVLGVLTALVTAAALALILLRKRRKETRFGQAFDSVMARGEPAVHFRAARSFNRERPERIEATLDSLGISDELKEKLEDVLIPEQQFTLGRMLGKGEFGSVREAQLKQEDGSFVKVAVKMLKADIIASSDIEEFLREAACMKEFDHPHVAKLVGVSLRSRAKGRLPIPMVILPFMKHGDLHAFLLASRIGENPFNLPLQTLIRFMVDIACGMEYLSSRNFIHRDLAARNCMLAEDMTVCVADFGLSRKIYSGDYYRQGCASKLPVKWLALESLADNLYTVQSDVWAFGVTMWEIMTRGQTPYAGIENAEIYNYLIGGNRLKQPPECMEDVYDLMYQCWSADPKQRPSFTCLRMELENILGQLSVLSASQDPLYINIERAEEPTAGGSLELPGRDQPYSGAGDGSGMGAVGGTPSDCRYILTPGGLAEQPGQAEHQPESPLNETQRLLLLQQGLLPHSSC

[23] = molecular target: Tyrosine-protein kinase ABL1 (Homo sapiens, UniProt P00519); test: Inhibition of ABL (unknown origin)
[24] = MRT in ICR mouse at 20 mg/kg, po measured up to 24 hrs; type: ADME, organism-based; conditions: in vivo
Aurora kinase A = Aurora kinase A (Homo sapiens, UniProt O14965); test: Inhibition of AURKA (unknown origin)
Aurora kinase A, sequence (O14965 whole entry): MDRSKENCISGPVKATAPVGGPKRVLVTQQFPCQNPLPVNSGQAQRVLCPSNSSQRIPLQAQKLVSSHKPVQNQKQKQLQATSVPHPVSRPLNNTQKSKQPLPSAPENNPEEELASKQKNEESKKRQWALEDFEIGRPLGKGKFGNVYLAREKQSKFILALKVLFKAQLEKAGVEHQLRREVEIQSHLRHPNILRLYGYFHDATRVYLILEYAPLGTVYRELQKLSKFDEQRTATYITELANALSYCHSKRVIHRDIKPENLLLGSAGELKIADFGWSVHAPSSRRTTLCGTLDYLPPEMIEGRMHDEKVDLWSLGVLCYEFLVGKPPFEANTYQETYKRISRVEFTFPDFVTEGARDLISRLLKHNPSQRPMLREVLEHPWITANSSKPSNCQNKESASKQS

[25] = molecular target: Receptor tyrosine-protein kinase erbB-4 (Homo sapiens, UniProt Q15303); test: Inhibition of ErbB4 (unknown origin)
MV4-11 [26] = test: Induction of apoptosis in human MV4-11 cells assessed as activation of caspase-3 at 5 to 50 nM measured after 24 hrs by Western blot analysis; type: functional, cell-based; conditions: dose 5-50 nM
MV4-11 [27] = test: Induction of apoptosis in human MV4-11 cells assessed as late apoptotic cells at 50 nM measured after 24 hrs by annexinV-FITC/propidium iodide staining based flow cytometry (reference value: 3.04 %); type: functional
JeKo-1 = test: Antiproliferative activity against human JeKo-1 cells assessed as reduction in cell proliferation measured after 3 to 7 days by MTS assay; type: functional, cell-based
[28] = Half life in ICR mouse at 2 mg/kg, iv measured up to 24 hrs; type: ADME, organism-based; conditions: in vivo

Cc1n[nH]c2ccc(-c3cc(N[C@@H](CO)c4ccccc4)cnc3Cl)cc12
IC50 (CDK9/cyclin T1): 0.00541 µM | IC50 [1]: > 1 µM | IC50 [2]: > 1 µM | IC50 [3]: > 1 µM | IC50 [4]: > 1 µM | Activity (MV4-11 [5]): 1.76% | IC50 [6]: > 1 µM | Activity [7]: 22.1 g | clearance [8]: 60 mL/min/kg | IC50 [9]: > 1 µM | IC50 [10]: 0.164 µM | IC50 [11]: > 1 µM | IC50 (Raji): 0.037 µM | IC50 (Insulin receptor): > 1 µM | IC50 [12]: > 1 µM | AUC(0-inf) [13]: 1880 ng·h/mL | T/C (MV4-11 [14]): 27.8% | IC50 [15]: > 1 µM | Activity (MV4-11 [16]): 2.95% | IC50 [17]: > 1 µM | Tmax [18]: 4.98 min | Activity [19]: < 10% | half-life [20]: 8.02 h | IC50 (Z-138): 0.046 µM | IC50 [21]: > 1 µM | IC50 [22]: > 1 µM | IC50 [23]: > 1 µM | MRT [24]: 5.99 h | IC50 (Aurora kinase A): > 1 µM | IC50 [25]: > 1 µM | Activity (MV4-11 [26]): Active | Activity (MV4-11 [27]): 16.89% | IC50 (JeKo-1): 0.046 µM | half-life [28]: 1.81 h

From ChEMBL document CHEMBL4840335, “Rational Design and Development of Novel CDK9 Inhibitors for the Treatment of Acute Myeloid Leukemia” (J Med Chem, 2021)
